Earlier results in patent publication US9603852B2, “Treatment of obesity and pulmonary arterial hypertension” (ALBERT EINSTEIN COLLEGE OF MEDICINE, INC., priority 2013, dated 2017).
pIC50: −log10 of the molar value. Like-named read-outs stand apart in the source and are kept apart here.

Target: T1, rat PGT (Rattus norvegicus, UniProt Q00910)
T1 construct: expressed in transfected cells
Conditions: cited from earlier work; for Inh (% of Ctl) 2.5 μM: 2.5 μM compound; for Inh (% of Ctl) 0.5 μM: 0.5 μM compound; for Inh (% of Ctl) 0.1 μM: 0.1 μM compound; for Inh (% of Ctl) 0.01 μM: 0.01 μM compound; for Inh (% of Ctl) 0.01 μM / Inh (% of Ctl) 0.05 μM: second part of Table 1; for Inh (% of Ctl) 0.05 μM: 0.05 μM compound

[1] = second part of Table 1 (Cpd 130-151)

Structure (SMILES): CCCCCCCC(=O)c1ccc(Nc2nc(NCCOCCOCCNC(=O)c3ccccc3)nc(Nc3ccc(O)cc3)n2)cc1 [Compound 76]
- Inh (% of Ctl) 2.5 μM: 39.9 % of Ctl

Structure (SMILES): O=C(NCCOCCOCCNc1nc(Nc2ccc(O)cc2)nc(Oc2ccc(C(=O)NCc3ccccc3)cc2)n1)c1ccccc1 [Compound 83]
- Inh (% of Ctl) 0.5 μM: 4.1 % of Ctl
- Inh (% of Ctl) 2.5 μM: 10.4 % of Ctl
- Inh (% of Ctl) 5 μM (5 μM compound): 42.0 % of Ctl
- pIC50 ([3H]PGE2 uptake, MDCK cells with rat PGT): 6.22

Structure (SMILES): O=C(NCCOCCOCCNc1nc(Nc2ccc(O)cc2)nc(Nc2ccc(C(=O)NCc3ccccc3)cc2)n1)c1ccccc1 [Compound 116]
- Inh (% of Ctl) 0.1 μM (first part of Table 1): 36.4 % of Ctl
- Inh (% of Ctl) 0.5 μM (0.5 µM): 59.4 % of Ctl

Structure (SMILES): O=C(NCCOCCOCCNc1nc(Nc2ccc(O)cc2)nc(Nc2ccc(C(=O)NCc3cc(F)cc(F)c3)cc2)n1)c1ccccc1 [Compound 130]
- Inh (% of Ctl) 0.01 μM: 41.6 % of Ctl
- Inh (% of Ctl) 0.05 μM: 73.2 % of Ctl
- Inh (% of Ctl) 0.1 μM [1]: 81.7 % of Ctl

Structure (SMILES): O=C(NCCOCCOCCNc1nc(Nc2ccc(O)cc2)nc(Nc2ccc(C(=O)NCc3ccc(F)cc3F)cc2)n1)c1ccccc1 [Compound 131]
- Inh (% of Ctl) 0.01 μM: 22.3 % of Ctl
- Inh (% of Ctl) 0.05 μM: 47.0 % of Ctl
- Inh (% of Ctl) 0.1 μM [1]: 74.3 % of Ctl

Structure (SMILES): N[C@@H](C(=O)NCCOCCNc1nc(Nc2ccc(O)cc2)nc(Nc2ccc(C(=O)NCc3ccccc3)cc2)n1)c1ccccc1 [Compound 132]
- Inh (% of Ctl) 0.01 μM: 15.0 % of Ctl
- Inh (% of Ctl) 0.05 μM: 22.1 % of Ctl
- Inh (% of Ctl) 0.1 μM [1]: 32.4 % of Ctl

Structure (SMILES): N[C@H](Cc1ccccc1)C(=O)NCCOCCNc1nc(Nc2ccc(O)cc2)nc(Nc2ccc(C(=O)NCc3ccccc3)cc2)n1 [Compound 133]
- Inh (% of Ctl) 0.01 μM: 4.3 % of Ctl
- Inh (% of Ctl) 0.05 μM: 12.6 % of Ctl
- Inh (% of Ctl) 0.1 μM [1]: 19.4 % of Ctl

Structure (SMILES): O=C(NCc1ccccc1)c1ccc(Nc2nc(NCCOCCNC(=O)c3ccccc3C(F)(F)F)nc(Nc3ccc(O)cc3)n2)cc1 [Compound 134]
- Inh (% of Ctl) 0.01 μM: 14.0 % of Ctl
- Inh (% of Ctl) 0.05 μM: 27.7 % of Ctl
- Inh (% of Ctl) 0.1 μM [1]: 46.7 % of Ctl

Structure (SMILES): O=C(NCCOCCNc1nc(Nc2ccc(O)cc2)nc(Nc2ccc(C(=O)NCc3ccccc3)cc2)n1)c1ccncc1 [Compound 135]
- Inh (% of Ctl) 0.01 μM: 13.2 % of Ctl
- Inh (% of Ctl) 0.05 μM: 28.4 % of Ctl

Structure (SMILES): O=C(NCCOCCNc1nc(Nc2ccc(O)cc2)nc(Nc2ccc(C(=O)NCc3ccccc3)cc2)n1)c1ccc(F)cc1 [Compound 136]
- Inh (% of Ctl) 0.01 μM: 33.3 % of Ctl
- Inh (% of Ctl) 0.05 μM: 64.1 % of Ctl
- Inh (% of Ctl) 0.1 μM [1]: 77.9 % of Ctl

Structure (SMILES): COc1ccc(C(=O)NCCOCCNc2nc(Nc3ccc(O)cc3)nc(Nc3ccc(C(=O)NCc4ccccc4)cc3)n2)cc1 [Compound 137]
- Inh (% of Ctl) 0.01 μM: 42.0 % of Ctl
- Inh (% of Ctl) 0.05 μM: 64.9 % of Ctl
- Inh (% of Ctl) 0.1 μM [1]: 75.6 % of Ctl

Structure (SMILES): O=C(NCCOCCNc1nc(Nc2ccc(O)cc2)nc(Nc2ccc(C(=O)NCc3ccccc3)cc2)n1)Nc1ccccc1 [Compound 139]
- Inh (% of Ctl) 0.01 μM: 16.3 % of Ctl
- Inh (% of Ctl) 0.05 μM: 30.7 % of Ctl
- Inh (% of Ctl) 0.1 μM [1]: 39.0 % of Ctl

Structure (SMILES): CC(=O)NCCOCCNc1nc(Nc2ccc(O)cc2)nc(Nc2ccc(C(=O)NCc3ccccc3)cc2)n1 [Compound 140]
- Inh (% of Ctl) 0.01 μM: 11.5 % of Ctl
- Inh (% of Ctl) 0.05 μM: 4.5 % of Ctl
- Inh (% of Ctl) 0.1 μM [1]: 10.9 % of Ctl

Structure (SMILES): O=C(NCc1ccccc1)c1ccc(Nc2nc(NCCOCCNCc3ccccc3)nc(Nc3ccc(O)cc3)n2)cc1 [Compound 141]
- Inh (% of Ctl) 0.01 μM: 12.7 % of Ctl
- Inh (% of Ctl) 0.05 μM: 22.0 % of Ctl
- Inh (% of Ctl) 0.1 μM [1]: 43.5 % of Ctl

Structure (SMILES): O=C(NCCOCCOCCNc1nc(Nc2ccc(C(=O)NCc3ccc(F)cc3)cc2)nc(Nc2ccc3[nH]cnc3c2)n1)c1ccccc1 [Compound 142]
- Inh (% of Ctl) 0.01 μM: 8.4 % of Ctl
- Inh (% of Ctl) 0.05 μM: 20.1 % of Ctl
- Inh (% of Ctl) 0.1 μM [1]: 39.2 % of Ctl

Structure (SMILES): O=C(NCCOCCOCCNc1nc(Nc2ccc(C(=O)NCc3ccc(F)cc3)cc2)nc(Nc2ccc(O)c(F)c2)n1)c1ccccc1 [Compound 143]
- Inh (% of Ctl) 0.01 μM: 33.7 % of Ctl
- Inh (% of Ctl) 0.05 μM: 57.8 % of Ctl
- Inh (% of Ctl) 0.1 μM [1]: 69.5 % of Ctl

Structure (SMILES): COC(=O)c1cc(Nc2nc(NCCOCCOCCNC(=O)c3ccccc3)nc(Nc3ccc(C(=O)NCc4ccc(F)cc4)cc3)n2)ccc1O [Compound 144]
- Inh (% of Ctl) 0.01 μM: 3.4 % of Ctl
- Inh (% of Ctl) 0.05 μM: 5.8 % of Ctl
- Inh (% of Ctl) 0.1 μM [1]: 10.8 % of Ctl

Structure (SMILES): O=C(NCc1ccc(F)cc1)c1ccc(Nc2nc(Nc3ccc(O)cc3)nc(Nc3ccc(O)cc3)n2)cc1 [Compound 145]
- Inh (% of Ctl) 0.01 μM: 7.1 % of Ctl
- Inh (% of Ctl) 0.05 μM: 3.1 % of Ctl
- Inh (% of Ctl) 0.1 μM [1]: 6.9 % of Ctl

Structure (SMILES): O=C(NCCOCCNc1nc(Nc2ccc(O)cc2)nc(Nc2ccc(C(=O)NCc3ccc(F)cc3)cc2)n1)c1ccccc1 [Compound 147]
- Inh (% of Ctl) 0.01 μM: 44.5 % of Ctl
- Inh (% of Ctl) 0.05 μM: 70.2 % of Ctl
- Inh (% of Ctl) 0.1 μM [1]: 79.5 % of Ctl

Structure (SMILES): O=C(NCc1ccc(F)cc1)c1ccc(Nc2nc(Nc3ccc(O)cc3)nc(Nc3ccc(C(=O)NCc4ccc(F)cc4)cc3)n2)cc1 [Compound 148]
- Inh (% of Ctl) 0.01 μM: 8.4 % of Ctl
- Inh (% of Ctl) 0.05 μM: 12.9 % of Ctl
- Inh (% of Ctl) 0.1 μM [1]: 20.7 % of Ctl

Structure (SMILES): O=C(NCc1ccc(F)cc1)c1ccc(Nc2nc(Nc3ccc(O)cc3)nc(Nc3ccc(CNCc4ccccc4)cc3)n2)cc1 [Compound 149]
- Inh (% of Ctl) 0.01 μM: 3.8 % of Ctl
- Inh (% of Ctl) 0.05 μM: 9.1 % of Ctl
- Inh (% of Ctl) 0.1 μM [1]: 17.6 % of Ctl

Structure (SMILES): O=C(O)c1cccc(Nc2nc(NCCOCCOCCNC(=O)c3ccccc3)nc(Nc3ccc(C(=O)NCc4ccc(F)cc4)cc3)n2)c1 [Compound 150]
- Inh (% of Ctl) 0.01 μM: 4.2 % of Ctl
- Inh (% of Ctl) 0.05 μM: 14.3 % of Ctl
- Inh (% of Ctl) 0.1 μM [1]: 23.9 % of Ctl

Structure (SMILES): O=C(NCCOCCOCCNc1nc(NCCOCCOCCNC(=O)c2ccccc2)nc(Nc2ccc(O)cc2)n1)c1ccccc1 [Compound 151]
- Inh (% of Ctl) 0.05 μM: 0.7 % of Ctl
- Inh (% of Ctl) 0.1 μM [1]: 8.4 % of Ctl
